Measured values: US11459298B2, “Class of dicationic compounds as well as the preparative method and the use thereof” (WEST CHINA HOSPITAL, SICHUAN UNIVERSITY, priority 2018, dated 2022)

Key:
[1] = test system: New Zealand white rabbits; experiment: Experiment on muscle relaxation in anesthetized rabbits (TOF neuromuscular transmission monitor); assay type: in vivo, rabbit; conditions: for ED (2 x ED95): Oryctolagus cuniculus, intravenous injection, propofol anesthesia; for ED (2 x ED95) / Onset time / Recovery time: N = 8; for Onset time: TOF=0, after i.v. 2× ED95 equivalent dose; for Recovery time: TOF=90%, after i.v. 2× ED95 equivalent dose; for change characteristics of TOF 1-4 after administration: depolarizing vs non-depolarizing pattern
Description: Male New Zealand white rabbits weighing 2-3.5 kg were used as experimental animals for muscle relaxation test. The specific procedures were: propofol emulsion was intravenously administrated to induce and maintain general anesthesia (induction dose: 10 mg/kg; maintenance dose: […]). Tracheal intubation was carried out and respiratory support was used.

human body = conditions: after single administration, clinical use; cited from earlier work

Row | Molecule | ED (2 x ED95) [1] | Onset time [1] | Recovery time [1] | change characteristics of TOF 1-4 after administration [1] | duration of muscle relaxation / action time (human body)
1 | COc1ccc(C[C@@H]2c3cc(OC)c(OC)cc3CC[N@+]2(C)CCC(=O)OCCCCCOC(=O)CC[N@@+]2(C)CCc3cc(OC)c(OC)cc3[C@H]2Cc2ccc(OC)c(OC)c2)cc1OC [Cisatracurium, reference compound] | 0.08 mg/kg | >90 s | 17.6 ± 5.2 min | successively and gradually decreased, rather than in equal proportion | 
2 | C[N+](CCCCOC(=O)OCOC(=O)C[N+]1(Cc2ccc([N+](=O)[O-])cc2)CCCCC1)(Cc1ccccc1)Cc1ccc([N+](=O)[O-])cc1 (centres unmarked) [Compound 1] | 0.8 mg/kg | <40 s | 5.2 ± 1.1 min |  | 
3 | C[N+](CCOC(=O)OCOC(=O)C[N+]1(Cc2ccc([N+](=O)[O-])cc2)CCCCC1)(Cc1ccccc1)Cc1ccc([N+](=O)[O-])cc1 (centres unmarked) [Compound 2] | 0.9 mg/kg | <40 s | 6.4 ± 1.4 min |  | 
4 | C[N+](CCOC(=O)OCOC(=O)CCC[N+]1(Cc2ccc([N+](=O)[O-])cc2)CCCCC1)(Cc1ccc(F)cc1)Cc1ccc([N+](=O)[O-])cc1 (centres unmarked) [Compound 3] | 1.8 mg/kg | <40 s | 4.8 ± 0.5 min |  | 
5 | C[N+](CCOC(=O)OCOC(=O)CCC[N+]1(Cc2ccc([N+](=O)[O-])cc2)CCCCC1)(Cc1ccc(Cl)cc1)Cc1ccc([N+](=O)[O-])cc1 (centres unmarked) [Compound 4] | 1.4 mg/kg | <40 s | 5.4 ± 0.9 min |  | 
6 | C[N+](CCOC(=O)OCOC(=O)CCC[N+]1(Cc2ccc([N+](=O)[O-])cc2)CCCCC1)(Cc1ccc([N+](=O)[O-])cc1)Cc1ccc(Cl)cc1Cl (centres unmarked) [Compound 5] | 1.6 mg/kg | <40 s | 5.2 ± 1.2 min |  | 
7 | C[N+](CCOC(=O)OCOC(=O)CCC[N+]1(Cc2ccc([N+](=O)[O-])cc2)CCCCC1)(Cc1ccc([N+](=O)[O-])cc1)Cc1c(F)cccc1F (centres unmarked) [Compound 6] | 0.8 mg/kg | <40 s | 4.1 ± 1.1 min |  | 
8 | C[N+](CCOC(=O)OCOC(=O)CCC[N+]1(Cc2ccc([N+](=O)[O-])cc2)CCCCC1)(Cc1ccc([N+](=O)[O-])cc1)Cc1ccc([N+](=O)[O-])cc1 [Compound 7] | 1.6 mg/kg | <40 s | 5.2 ± 1.1 min |  | 
9 | C[N+](CCOC(=O)OCOC(=O)CCC[N+]1(Cc2ccc([N+](=O)[O-])cc2)CCCCC1)(Cc1ccc(C#N)cc1)Cc1ccc([N+](=O)[O-])cc1 (centres unmarked) [Compound 8] | 1.7 mg/kg | <40 s | 7.2 ± 1.4 min |  | 
10 | C[N+](CCOC(=O)OCOC(=O)CCC[N+]1(Cc2ccc([N+](=O)[O-])cc2)CCCCC1)(Cc1ccc([N+](=O)[O-])cc1)Cc1ccc(C(F)(F)F)cc1 (centres unmarked) [Compound 9] | 1.6 mg/kg | <40 s | 5.2 ± 1.2 min |  | 
11 | C[N+](CCOC(=O)OCOC(=O)CCC[N+]1(Cc2ccc(C(F)(F)F)cc2)CCCCC1)(Cc1ccccc1)Cc1ccc([N+](=O)[O-])cc1 (centres unmarked) [Compound 10] | 2.4 mg/kg | <40 s | 6.2 ± 0.9 min |  | 
12 | C[N+](CCOC(=O)OCOC(=O)CCC[N+]1(Cc2ccc([N+](=O)[O-])cc2)CCCCC1)(Cc1ccc(-c2ccccc2)cc1)Cc1ccc([N+](=O)[O-])cc1 (centres unmarked) [Compound 11] | 1.5 mg/kg | <40 s | 7.7 ± 1.6 min |  | 
13 | COc1ccc(C[N+](C)(CCOC(=O)OCOC(=O)CCC[N+]2(Cc3ccc(OC)c(OC)c3)CCCCC2)Cc2ccc(OC)c(OC)c2)cc1OC [Compound 12] | 4.4 mg/kg | <40 s | 6.3 ± 2.1 min |  | 
14 | Cc1ccc(C[N+](C)(CCCCOC(=O)OCOC(=O)C[N+]2(Cc3ccc(C)c(C)c3)CCCCC2)Cc2ccc(C)c(C)c2)cc1C [Compound 13] | 6.2 mg/kg | <40 s | 6.9 ± 1.7 min |  | 
15 | C[N+](CCOC(=O)OCOC(=O)COCC[N+]1(Cc2ccc([N+](=O)[O-])cc2)CCCCC1)(Cc1ccccc1)Cc1ccc([N+](=O)[O-])cc1 (centres unmarked) [Compound 19] | 0.8 mg/kg | <40 s | 4.1 ± 0.8 min |  | 
16 | CC1CC[N+](CCCC(=O)OCOC(=O)OCC[N+](C)(Cc2ccccc2)Cc2ccc([N+](=O)[O-])cc2)(Cc2ccc([N+](=O)[O-])cc2)CC1 (centres unmarked) [Compound 35] | 1 mg/kg | <40 s | 7.2 ± 2.3 min |  | 
17 | C[N+](CCOC(=O)OCOC(=O)CCC[N+]1(Cc2ccc([N+](=O)[O-])cc2)CCCCC1)(Cc1ccc([N+](=O)[O-])cc1)Cc1ccsc1 (centres unmarked) [Compound 38] | 1.2 mg/kg | <40 s | 4.4 ± 1.1 min |  | 
18 | C[N+](CCOC(=O)OCOC(=O)CCC[N+]1(Cc2ccc([N+](=O)[O-])cc2)CCC(F)(F)CC1)(Cc1ccccc1)Cc1ccc([N+](=O)[O-])cc1 (centres unmarked) [Compound 45] | 0.8 mg/kg | <40 s | 5.1 ± 1.4 min |  | 
19 | C[N+](CCOC(=O)OCOC(=O)CCC[N+]1(Cc2ccc([N+](=O)[O-])cc2)CCCC1)(Cc1ccc(F)cc1)Cc1ccc([N+](=O)[O-])cc1 (centres unmarked) [Compound 47] | 1.4 mg/kg | <40 s | 3.1 ± 0.7 min |  | 
20 | C[N+](C)(C)CCOC(=O)CCC(=O)OCC[N+](C)(C)C [Succinylcholine, reference compound] | 1.8 mg/kg | <40 s | 13.3 ± 3.5 min | decreased in the same proportion until disappearance | 10 min
21 | CC(=O)O[C@H]1C[C@@H]2CC[C@@H]3[C@H](CC[C@@]4(C)[C@H]3C[C@H]([N+]3(C)CCCCC3)[C@@H]4OC(C)=O)[C@@]2(C)C[C@@H]1[N+]1(C)CCCCC1 [pancuronium] |  |  |  |  | > 60 min
22 | micuronium |  |  |  |  | 15 to 20 min
